Laboratory results from US11857519B2, “Compounds and methods for the targeted degradation of enhancer of zeste homolog 2 polypeptide” (Arvinas Operations, Inc., priority 2016, dated 2024).

These molecules were tested against T1, EZH2 (Homo sapiens, UniProt Q15910) (assay: Cellular assay of target protein degradation (VCaP cells, ELISA)). Details: 4 hours, protein degradation range at indicated concentration (relative to DMSO control).
T1 construct: Protocol of the Cellular Assay of Target Protein Degradation (VCaP Cells, ELISA); endogenous in cells; host or cells: VCaP cells
Assay type: cell-based
Outline: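 EZH2 level measured by sandwich ELISA (TMB, A450 minus A562 background) in lysates of VCaP cells. Cells had been cultured at least 3 days in 5% CSS RPMI before 4 h compound exposure in 0.1% DMSO.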

T1 sequence (Q15910 whole entry): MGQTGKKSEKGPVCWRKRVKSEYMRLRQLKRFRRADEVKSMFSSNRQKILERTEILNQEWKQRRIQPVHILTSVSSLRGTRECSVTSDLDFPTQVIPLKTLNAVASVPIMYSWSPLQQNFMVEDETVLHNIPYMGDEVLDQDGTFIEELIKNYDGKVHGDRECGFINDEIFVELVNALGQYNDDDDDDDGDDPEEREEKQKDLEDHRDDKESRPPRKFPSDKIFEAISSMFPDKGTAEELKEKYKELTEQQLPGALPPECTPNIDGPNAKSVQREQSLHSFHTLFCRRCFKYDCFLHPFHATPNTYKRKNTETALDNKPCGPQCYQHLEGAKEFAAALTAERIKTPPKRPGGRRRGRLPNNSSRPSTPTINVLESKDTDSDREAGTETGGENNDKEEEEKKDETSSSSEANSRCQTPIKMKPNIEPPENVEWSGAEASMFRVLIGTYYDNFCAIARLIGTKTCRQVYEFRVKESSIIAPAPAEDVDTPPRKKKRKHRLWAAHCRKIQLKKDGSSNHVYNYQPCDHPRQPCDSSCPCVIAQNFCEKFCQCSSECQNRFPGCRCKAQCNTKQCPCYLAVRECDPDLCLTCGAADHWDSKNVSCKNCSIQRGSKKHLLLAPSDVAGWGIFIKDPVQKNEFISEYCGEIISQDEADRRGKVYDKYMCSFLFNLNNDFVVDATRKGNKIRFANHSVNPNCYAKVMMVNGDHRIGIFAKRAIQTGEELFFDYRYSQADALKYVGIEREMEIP
T1 sequence (O75530 whole entry partner): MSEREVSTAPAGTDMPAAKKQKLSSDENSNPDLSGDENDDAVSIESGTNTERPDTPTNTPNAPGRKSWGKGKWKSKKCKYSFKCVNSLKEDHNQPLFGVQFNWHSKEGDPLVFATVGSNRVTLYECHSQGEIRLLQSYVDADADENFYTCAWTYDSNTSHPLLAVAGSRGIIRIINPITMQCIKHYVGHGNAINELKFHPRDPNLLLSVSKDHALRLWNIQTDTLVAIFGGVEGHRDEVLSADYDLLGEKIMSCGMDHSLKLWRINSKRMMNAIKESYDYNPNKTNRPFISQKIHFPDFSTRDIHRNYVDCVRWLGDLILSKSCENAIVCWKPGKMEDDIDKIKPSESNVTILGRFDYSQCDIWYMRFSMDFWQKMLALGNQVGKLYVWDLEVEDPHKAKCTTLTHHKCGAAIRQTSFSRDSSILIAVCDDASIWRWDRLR
T1 sequence (Q15022 whole entry partner): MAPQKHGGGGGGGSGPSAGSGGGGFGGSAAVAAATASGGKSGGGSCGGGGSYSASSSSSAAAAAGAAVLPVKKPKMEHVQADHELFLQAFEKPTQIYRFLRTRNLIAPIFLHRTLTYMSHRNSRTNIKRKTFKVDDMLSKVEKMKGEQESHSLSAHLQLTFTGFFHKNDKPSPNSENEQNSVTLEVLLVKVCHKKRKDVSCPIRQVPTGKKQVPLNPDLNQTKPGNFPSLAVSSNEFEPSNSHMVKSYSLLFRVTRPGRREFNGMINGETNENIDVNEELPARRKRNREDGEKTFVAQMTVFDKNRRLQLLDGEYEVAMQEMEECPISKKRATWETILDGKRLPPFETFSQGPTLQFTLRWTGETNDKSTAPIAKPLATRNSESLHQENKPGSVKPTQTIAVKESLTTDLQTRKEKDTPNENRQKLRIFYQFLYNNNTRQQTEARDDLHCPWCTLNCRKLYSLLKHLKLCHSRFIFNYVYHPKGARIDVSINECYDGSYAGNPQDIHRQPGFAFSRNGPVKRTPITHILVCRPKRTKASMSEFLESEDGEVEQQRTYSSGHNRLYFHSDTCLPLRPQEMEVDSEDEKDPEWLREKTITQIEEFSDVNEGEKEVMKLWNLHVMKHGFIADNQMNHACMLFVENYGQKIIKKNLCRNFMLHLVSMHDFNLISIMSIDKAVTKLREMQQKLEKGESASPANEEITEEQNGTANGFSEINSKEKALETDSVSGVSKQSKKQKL

Compound | percent target protein degradation class
CCN(c1cc(-c2ccc(OCCCCCOc3cc(C(C(=O)N4C[C@H](O)C[C@H]4C(=O)N[C@@H](C)c4ccc(-c5scnc5C)cc4)C(C)C)on3)cc2)cc(C(=O)NCc2c(C)cc(C)[nH]c2=O)c1C)C1CCOCC1 (stereo partly drawn) [Compound 104, (2S,4R)-1-(2-(3-(5-(3′-((4,6-dimethyl-2-oxo-1,2-dihydropyridin-3-yl)methylcarbamoyl)-5′-(ethyl(tetrahydro-2H-pyran-4-yl)amino)-4′-methylbiphenyl-4-yloxy)pentyloxy)isoxazol-5-yl)-3-methylbutanoyl)-4-hydroxy-N—((S)-1-(4-(4-methylthiazol-5-yl)phenyl)ethyl)pyrrolidine-2-carboxamide] | A (A = degradation more than 60%)
CCN(c1cc(-c2ccc(OCCOCCOc3cc(C(C(=O)N4C[C@H](O)C[C@H]4C(=O)N[C@@H](C)c4ccc(-c5scnc5C)cc4)C(C)C)on3)cc2)cc(C(=O)NCc2c(C)cc(C)[nH]c2=O)c1C)C1CCOCC1 (stereo partly shown) [Compound 105] | A (A = degradation more than 60%)
CCN(c1cc(-c2ccc(OCCCCCCOc3cc(C(C(=O)N4C[C@H](O)C[C@H]4C(=O)N[C@@H](C)c4ccc(-c5scnc5C)cc4)C(C)C)on3)cc2)cc(C(=O)NCc2c(C)cc(C)[nH]c2=O)c1C)C1CCOCC1 (stereo partly drawn) [Compound 106, (2S,4R)-1-(2-(3-((6-((3′-(((4,6-dimethyl-2-oxo-1,2-dihydropyridin-3-yl)methyl)carbamoyl)-5′-(ethyl(tetrahydro-2H-pyran-4-yl)amino)-4′-methyl-[1,1′-biphenyl]-4-yl)oxy)hexyl)oxy)isoxazol-5-yl)-3-methylbutanoyl)-4-hydroxy-N-((S)-1-(4-(4-methylthiazol-5-yl)phenyl)ethyl)pyrrolidine-2-carboxamide] | A (A = degradation more than 60%)
CCN(c1cc(-c2ccc(OCCCCOc3cc(C(C(=O)N4C[C@H](O)C[C@H]4C(=O)N[C@@H](C)c4ccc(-c5scnc5C)cc4)C(C)C)on3)cc2)cc(C(=O)NCc2c(C)cc(C)[nH]c2=O)c1C)C1CCOCC1 (stereo partly drawn) [Compound 107, (2S,4R)-1-(2-(3-(4-(3′-((4,6-dimethyl-2-oxo-1,2-dihydropyridin-3-yl)methylcarbamoyl)-5′-(ethyl(tetrahydro-2H-pyran-4-yl)amino)-4′-methylbiphenyl-4-yloxy)butoxy)isoxazol-5-yl)-3-methylbutanoyl)-4-hydroxy-N—((S)-1-(4-(4-methylthiazol-5-yl)phenyl)ethyl)pyrrolidine-2-carboxamide] | A (A = degradation more than 60%)
CCN(c1cc(-c2ccc(OCCOCc3ccc4c(c3)C(=O)N([C@H](C(=O)N3C[C@H](O)C[C@H]3C(=O)N[C@@H](C)c3ccc(-c5scnc5C)cc3)C(C)C)C4)cc2)cc(C(=O)NCc2c(C)cc(C)[nH]c2=O)c1C)C1CCOCC1 [Compound 108, (2S,4R)-1-((S)-2-(6-((2-((3′-(((4,6-dimethyl-2-oxo-1,2-dihydropyridin-3-yl)methyl)carbamoyl)-5′-(ethyl(tetrahydro-2H-pyran-4-yl)amino)-4′-methyl-[1,1′-biphenyl]-4-yl)oxy)ethoxy)methyl)-1-oxoisoindolin-2-yl)-3-methylbutanoyl)-4-hydroxy-N-((S)-1-(4-(4-methylthiazol-5-yl)phenyl)ethyl)pyrrolidine-2-carboxamide] | B (B = degradation between 30% and 60%)
CCN(c1cc(-c2ccc(CCOCCOc3cc(C(C(=O)N4C[C@H](O)C[C@H]4C(=O)N[C@@H](C)c4ccc(-c5scnc5C)cc4)C(C)C)on3)cc2)cc(C(=O)NCc2c(C)cc(C)[nH]c2=O)c1C)C1CCOCC1 (stereo partly drawn) [Compound 110, (2S,4R)-1-(2-(3-(2-(2-(3′-(((4,6-dimethyl-2-oxo-1,2-dihydropyridin-3-yl)methyl)carbamoyl)-5′-(ethyl(tetrahydro-2H-pyran-4-yl)amino)-4′-methyl-[1,1′-biphenyl]-4-yl)ethoxy)ethoxy)isoxazol-5-yl)-3-methylbutanoyl)-4-hydroxy-N-((S)-1-(4-(4-methylthiazol-5-yl)phenyl)ethyl)pyrrolidine-2-carboxamide] | A (A = degradation more than 60%)
CCN(c1cc(-c2ccc(CCCOCCOc3cc(C(C(=O)N4C[C@H](O)C[C@H]4C(=O)N[C@@H](C)c4ccc(-c5scnc5C)cc4)C(C)C)on3)cc2)cc(C(=O)NCc2c(C)cc(C)[nH]c2=O)c1C)C1CCOCC1 (stereo partly drawn) [Compound 111, (2S,4R)-1-(2-(3-(2-(3-(3′-(((4,6-dimethyl-2-oxo-1,2-dihydropyridin-3-yl)methyl)carbamoyl)-5′-(ethyl(tetrahydro-2H-pyran-4-yl)amino)-4′-methyl-[1,1′-biphenyl]-4-yl)propoxy)ethoxy)isoxazol-5-yl)-3-methylbutanoyl)-4-hydroxy-N-((S)-1-(4-(4-methylthiazol-5-yl)phenyl)ethyl)pyrrolidine-2-carboxamide] | A (A = degradation more than 60%)
CCN(c1cc(-c2ccc(CN3CCN(CC4CCN(c5ccc6c(c5)C(=O)N(C5CCC(=O)NC5=O)C6=O)CC4)CC3)cc2)cc(C(=O)NCc2c(C)cc(C)[nH]c2=O)c1C)C1CCOCC1 (stereo not shown) [Compound 113, N-((4,6-dimethyl-2-oxo-1,2-dihydropyridin-3-yl)methyl)-4′-((4-((1-(2-(2,6-dioxopiperidin-3-yl)-1,3-dioxoisoindolin-5-yl)piperidin-4-yl)methyl)piperazin-1-yl)methyl)-5-(ethyl(tetrahydro-2H-pyran-4-yl)amino)-4-methyl-[1,1′-biphenyl]-3-carboxamide] | B (B = degradation between 30% and 60%)
CCN(c1cc(-c2ccc(CN3CCN(CCOCCOCC(=O)N[C@H](C(=O)N4C[C@H](O)C[C@H]4C(=O)N[C@@H](C)c4ccc(-c5scnc5C)cc4)C(C)(C)C)CC3)cc2)cc(C(=O)NCc2c(C)cc(C)[nH]c2=O)c1C)C1CCOCC1 [Compound 114, (2S,4R)-1-((S)-2-(2-(2-(2-(4-((3′-(((4,6-dimethyl-2-oxo-1,2-dihydropyridin-3-yl)methyl)carbamoyl)-5′-(ethyl(tetrahydro-2H-pyran-4-yl)amino)-4′-methyl-[1,1′-biphenyl]-4-yl)methyl)piperazin-1-yl)ethoxy)ethoxy)acetamido)-3,3-dimethylbutanoyl)-4-hydroxy-N-((S)-1-(4-(4-methylthiazol-5-yl)phenyl)ethyl)pyrrolidine-2-carboxamide] | A (A = degradation more than 60%)
CCN(c1cc(-c2ccc(CN3CCC(CN4CCN(c5ccc6c(c5)C(=O)N(C5CCC(=O)NC5=O)C6=O)CC4)CC3)cc2)cc(C(=O)NCc2c(C)cc(C)[nH]c2=O)c1C)C1CCOCC1 (stereo not shown) [Compound 115, N-((4,6-dimethyl-2-oxo-1,2-dihydiopyridin-3-yl)methyl)-4′-((4-((4-(2-(2,6-dioxopiperidin-3-yl)-1,3-dioxoisoindolin-5-yl)piperazin-1-yl)methyl)piperidin-1-yl)methyl)-5-(ethyl(tetrahydro-2H-pyran-4-yl)amino)-4-methyl-[1,1′-biphenyl]-3-carboxamide] | B (B = degradation between 30% and 60%)
CCN(c1cc(-c2ccc(CN3CCN(CCOCC(=O)N[C@H](C(=O)N4C[C@H](O)C[C@H]4C(=O)N[C@@H](C)c4ccc(-c5scnc5C)cc4)C(C)(C)C)CC3)cc2)cc(C(=O)NCc2c(C)cc(C)[nH]c2=O)c1C)C1CCOCC1 [Compound 116, (2S,4R)-1-((S)-2-(2-(2-(4-((3′-(((4,6-dimethyl-2-oxo-1,2-dihydropyridin-3-yl)methyl)carbamoyl)-5′-(ethyl(tetrahydro-2H-pyran-4-yl)amino)-4′-methyl-[1,1′-biphenyl]-4-yl)methyl)piperazin-1-yl)ethoxy)acetamido)-3,3-dimethylbutanoyl)-4-hydroxy-N-((S)-1-(4-(4-methylthiazol-5-yl)phenyl)ethyl)pyrrolidine-2-carboxamide] | A (A = degradation more than 60%)
CCN(c1cc(-c2ccc(CN3CCN(CCCCOCC(=O)N[C@H](C(=O)N4C[C@H](O)C[C@H]4C(=O)N[C@@H](C)c4ccc(-c5scnc5C)cc4)C(C)(C)C)CC3)cc2)cc(C(=O)NCc2c(C)cc(C)[nH]c2=O)c1C)C1CCOCC1 [Compound 117, (2S,4R)-1-((S)-2-(2-(4-(4-((3′-(((4,6-dimethyl-2-oxo-1,2-dihydropyridin-3-yl)methyl)carbamoyl)-5′-(ethyl(tetrahydro-2H-pyran-4-yl)amino)-4′-methyl-[1,1′-biphenyl]-4-yl)methyl)piperazin-1-yl)butoxy)acetamido)-3,3-dimethylbutanoyl)-4-hydroxy-N-((S)-1-(4-(4-methylthiazol-5-yl)phenyl)ethyl)pyrrolidine-2-carboxamide] | A (A = degradation more than 60%)
CCN(c1cc(-c2ccc(CN3CCN(CCCOCC(=O)N[C@H](C(=O)N4C[C@H](O)C[C@H]4C(=O)N[C@@H](C)c4ccc(-c5scnc5C)cc4)C(C)(C)C)CC3)cc2)cc(C(=O)NCc2c(C)cc(C)[nH]c2=O)c1C)C1CCOCC1 [Compound 118, (2S,4R)-1-((S)-2-(2-(3-(4-((3′-(((4,6-dimethyl-2-oxo-1,2-dihydropyridin-3-yl)methyl)carbamoyl)-5′-(ethyl(tetrahydro-2H-pyran-4-yl)amino)-4′-methyl-[1,1′-biphenyl]-4-yl)methyl)piperazin-1-yl)propoxy)acetamido)-3,3-dimethylbutanoyl)-4-hydroxy-N-((S)-1-(4-(4-methylthiazol-5-yl)phenyl)ethyl)pyrrolidine-2-carboxamide] | A (A = degradation more than 60%)
